Article PMC3163566, “Combined analysis of transcriptome and metabolite data reveals extensive differences between black and brown nearly-isogenic soybean (Glycine max) seed coats enabling the identification of pigment isogenes” (BMC Genomics, 2011)

Legend:
UGT78K2 = target: T1, UGT78K2 (Glycine max, UniProt G0WMC8); assay: HPLC-DAD and HPLC-MS/MS product detection; format: biochemical; conditions: glucose acceptor; 5 mM UDP-glucose; 30 °C, 5 min; product cyanidin-3-O-glucoside
T1 construct: full-length CDS, N-terminal His6 tag (pET-14b), E. coli BL21(DE3) pLysS, IMAC purified
T1 sequence (G0WMC8 1-447): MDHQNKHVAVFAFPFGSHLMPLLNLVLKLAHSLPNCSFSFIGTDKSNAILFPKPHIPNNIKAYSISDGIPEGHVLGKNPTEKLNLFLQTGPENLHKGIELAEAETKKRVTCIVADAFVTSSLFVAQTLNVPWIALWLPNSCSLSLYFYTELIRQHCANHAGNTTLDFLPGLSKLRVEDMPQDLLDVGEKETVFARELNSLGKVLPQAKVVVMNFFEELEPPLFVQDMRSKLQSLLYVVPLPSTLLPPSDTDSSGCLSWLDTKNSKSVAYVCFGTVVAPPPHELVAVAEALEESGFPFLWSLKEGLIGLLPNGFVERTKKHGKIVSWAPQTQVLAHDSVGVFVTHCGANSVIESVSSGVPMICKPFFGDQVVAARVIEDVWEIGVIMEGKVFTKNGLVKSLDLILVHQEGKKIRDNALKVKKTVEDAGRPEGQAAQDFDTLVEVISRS

OMT5 = target: T2, OMT5 (Glycine max, UniProt F2YBA9); assay: HPLC-DAD and HPLC-MS/MS product detection; format: biochemical; conditions: methyl acceptor; SAM 100 uM, MgCl2 150 uM, Tris pH 7.5, 35 °C, 1 h; product peonidin-3-O-glucoside
T2 construct: full-length CDS, N-terminal His6 tag (pET-14b), E. coli BL21(DE3) pLysS, IMAC purified; primers based on mRNA BT098523
T2 sequence (F2YBA9 1-248): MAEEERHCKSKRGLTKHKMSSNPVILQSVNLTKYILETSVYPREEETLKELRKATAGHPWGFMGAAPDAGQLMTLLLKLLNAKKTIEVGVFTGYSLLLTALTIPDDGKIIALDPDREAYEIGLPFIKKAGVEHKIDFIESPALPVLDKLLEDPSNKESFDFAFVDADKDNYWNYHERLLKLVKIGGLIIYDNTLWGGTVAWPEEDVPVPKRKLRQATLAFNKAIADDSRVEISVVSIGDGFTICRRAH

SMILES | HPLC-DAD and HPLC-MS/MS product detection (UGT78K2) | HPLC-DAD and HPLC-MS/MS product detection (OMT5)
Oc1cc(O)c2cc(O)c(-c3ccc(O)c(O)c3)[o+]c2c1 [cyanidin] | the recombinant enzyme transferred glucose to the 3-position of cyanidin to form cyanidin-3-O-glucoside | –
OC[C@H]1O[C@@H](Oc2cc3c(O)cc(O)cc3[o+]c2-c2ccc(O)c(O)c2)[C@H](O)[C@@H](O)[C@@H]1O [cyanidin-3-O-glucoside] | – | methyl donor and cyanidin-3-O-glucoside as the acceptor, the recombinant enzyme transferred a methyl group
